“Also recorded” adds a separate entry of the source. Like-named read-outs stand apart in the source and are kept apart here.

The source of these data is publication PMC9570088, “Phytochemicals with Chemopreventive Activity Obtained from the Thai Medicinal Plant Mammea siamensis (Miq.) T. Anders.: Isolation and Structure Determination of New Prenylcoumarins with Inhibitory Activity against Aromatase” (International Journal of Molecular Sciences, 2022).

Experiment [1] addresses T1, human recombinant aromatase (Homo sapiens, UniProt P11511).
T1 construct: purchased BD Biosciences (Heidelberg, Germany)
T1 sequence (P11511 1-503): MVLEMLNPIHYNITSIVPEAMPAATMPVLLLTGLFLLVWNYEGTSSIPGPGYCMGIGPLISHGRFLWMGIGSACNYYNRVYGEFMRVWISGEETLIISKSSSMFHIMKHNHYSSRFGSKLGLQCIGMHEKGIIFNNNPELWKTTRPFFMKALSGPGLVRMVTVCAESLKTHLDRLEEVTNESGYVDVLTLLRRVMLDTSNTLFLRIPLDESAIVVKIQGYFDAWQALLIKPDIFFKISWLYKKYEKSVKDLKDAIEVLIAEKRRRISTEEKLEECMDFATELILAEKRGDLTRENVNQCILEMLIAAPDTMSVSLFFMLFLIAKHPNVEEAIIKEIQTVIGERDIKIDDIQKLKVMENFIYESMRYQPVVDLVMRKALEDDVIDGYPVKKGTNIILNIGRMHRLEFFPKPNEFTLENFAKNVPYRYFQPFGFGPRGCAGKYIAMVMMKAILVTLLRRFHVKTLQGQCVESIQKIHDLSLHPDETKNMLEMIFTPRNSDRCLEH
In words: Inhibitory effects against human recombinant aromatase (DBF fluorescence assay). It is filed as biochemical. Particulars: for IC50: substrate DBF, mean, N = 3. The method, then: Dibenzylfluorescein (DBF) and human CYP19 + P450 reductase SUPERSOMES (human recombinant aromatase) were purchased from BD Biosciences (Heidelberg, Germany) and testosterone from Tokyo Chemical Industry Co., Ltd. (Tokyo, Japan). The other chemicals used in this study were purchased from Wako Pure Chemical Industries, Co., Ltd. (Osaka, Japan).
The experiments were performed according to a previously described method. Briefly, a test sample was dissolved in dimethyl sulfoxide (DMSO), and the solution was diluted with potassium phosphate buffer (50 mM, pH 7.4) containing MgCl2 (0.5 mM) to obtain the test sample solution (concentration of DMSO: 2%). An enzyme/substrate solution in the buffer (20 µL, 1.6 µM DBF, 8 nM human recombinant aromatase) and the test sample solution (20 µL) were mixed in a 96-well half-area black microplate (Greiner Bio-One, Frickenhausen, Germany) at 37 °C for 10 min. The enzymatic reaction was initiated by adding NADPH solution (40 µL, 500 µM) at 37 °C for 30 min. After 30 min of incubation, NaOH (30 µL, 2 mM) was added, and the reaction mixture was incubated at 37 °C for 2 h to induce fluorescent signals (final DMSO concentration, 0.5%; aromatase, 2 nM; and NADPH, 250 µM). Fluorescence was measured using a fluorescence microplate reader (SH-9000, CORONA […] Co., Ltd., Ibaraki, Japan) at an excitation wavelength of 435 nm and emission wavelength of 535 nm. Experiments were performed in triplicate, and the IC50 values were determined graphically.

Experiment [2] concerns the target T1, human recombinant aromatase. The experiment can be described thus: Kinetic analysis of inhibitory activity against human recombinant aromatase using Lineweaver-Burk plots (testosterone substrate, estradiol EIA). Particulars: for mode of inhibition of aromatase: Lineweaver–Burk plots; for Ki: testosterone 0.4–4 µM as substrate, secondary plot of Lineweaver–Burk, N = 3. It is filed as biochemical. The source says:
In the assay system, we fixed the enzyme concentration, changed the substrate concentration, and obtained the kinetic parameters of the enzyme-catalyzed reaction using Lineweaver–Burk double reciprocal plot 1/[V] vs. 1/[S]. The inhibition constant Ki indicates the potency of an inhibitor and equals the concentration required to produce half-maximal inhibition. The Ki value was obtained from the intersection of the secondary plot with the x-axis (apparent Km/Vmax vs. inhibitor).
Experiments were performed using a previously described protocol, modified by using various concentrations of testosterone (0.4–4 µM) as substrates instead of DBF and the plate was heated at 37 °C for 15 min. After the reaction, the enzyme was inactivated by heating in a boiling water bath for 2 min. An estradiol EIA kit (Oxford Biomedical Research, Inc., Oxford, MI, USA) was used to develop an estradiol standard curve to determine the concentration of estradiol produced and to correlate the concentration of estradiol with the reaction velocity. The mode of inhibition was analyzed using the Lineweaver–Burk plot of the inverse of the reaction velocity of estradiol plotted on the vertical axis and the inverse of the final concentration of the substrate on the horizontal axis, with and without the test substance (Figure S27).

Experiment [3] shares this target. More on the design: method as in PMID 27373643. Particulars: value marked as from earlier report; read-out: IC50 against human recombinant aromatase; cited from earlier work.

As usually defined, the IC50 is the concentration needed to halve the response being measured. The term Ki denotes the dissociation constant of the complex between target and ligand, obtained from inhibition or displacement. As to `CCCC(=O)c1c(O)c2c(c3c(CCC)cc(=O)oc13)OC(C)(C)C=C2` [compound 1, mammeasin K], the IC50 in experiment [1] was 7.6 µM. In experiment [2], the “mode of inhibition of aromatase” value is “competitively inhibit; also recorded: competitive inhibition; also recorded: competitive inhibitors” and the Ki is 3.4 µM.
`CCCC(=O)c1c(O)c2c(c3c(-c4ccccc4)cc(=O)oc13)OC(C)(C)C=C2` [compound 2, mammeasin L]: the IC50 in experiment [1] is 20.7 µM.
For orientation: inhibition means the drop in the measured response relative to a control, in per cent. As for `CCCC(=O)c1c2c(c3oc(=O)cc(-c4ccccc4)c3c1O)C(OC)C(C(C)(C)O)O2` (centres unmarked) [compound 3, mammeasin M], the inhibition at 100 µM in experiment [1] (100 µM, value in parentheses) amounted to 43.4%. Also, in experiment [1], the half-maximal inhibitory concentration (IC50) is more than 100 µM.
On to `CCCC(=O)c1c(O)c(C/C=C(\C)CCC=C(C)C)c(O)c2c([C@H](CC)OC(C)=O)cc(=O)oc12` [compound 6, Mammeasin A], for which the Ki in experiment [2] stood at 5.1 µM. Moreover, the concentration for half-maximal inhibition (IC50) in experiment [3] was 8.7 µM.
On to `CC[C@H](OC(C)=O)c1cc(=O)oc2c(C(=O)CC(C)C)c(O)c(C/C=C(\C)CCC=C(C)C)c(O)c12` [compound 7, Mammeasin B], for which, in experiment [2], the “mode of inhibition of aromatase” value is “competitive inhibition; also recorded: competitive inhibitors” and the Ki was determined as 1.3 µM. Moreover, the IC50 in experiment [3] is 4.1 µM.
With `CC(C)=CCC/C(C)=C/Cc1c(O)c(C(=O)C(C)C)c2oc(=O)cc3c2c1OC(C)C3` (centres unmarked) [compound 8, Mammeasin C], in experiment [2], the “mode of inhibition of aromatase” value is given as “competitive inhibition; also recorded: competitive inhibitors” and the Ki worked out at 2.8 µM. In experiment [3], the IC50 was 2.7 µM.
As to `CCCC(=O)c1c(O)c(C/C=C(\C)CCC=C(C)C)c2c3c(cc(=O)oc13)CC(C)O2` (centres unmarked) [compound 9, Mammeasin D], the Ki in experiment [2] came to 4.3 µM. Moreover, in experiment [3], the IC50 is 3.6 µM.
As to `CCCC(=O)c1c(O)c2c(c3c(CCC)cc(=O)oc13)OC(C)(CCC=C(C)C)C=C2` (centres unmarked) [compound 12, Mammeasin G], the IC50 in experiment [1] stood at 21.3 µM.
On the same count and under the same terms, the figure for `CCCc1cc(=O)oc2c(C(=O)C(C)CC)c(O)c3c(c12)OC(C)(CCC=C(C)C)C=C3` (centres unmarked) [compound 13, Mammeasin H] is 17.9 µM.
In the case of `C/C=C/c1cc(=O)oc2c(C(=O)CCC)c(O)c3c(c12)OC(C)(CCC=C(C)C)C=C3` (centres unmarked) [compound 14, Mammeasin I], the IC50 in experiment [1] amounted to 21.3 µM.
Same read-out and setting: the figure for `CCCc1cc(=O)oc2c3c(c(C(=O)C(C)CC)c(O)c12)OC(C)(CCC=C(C)C)C=C3` (centres unmarked) [compound 15, Mammeasin J] is 23.4 µM.
With `CCC(C)C(=O)c1c(O)c(C/C=C(\C)CCC=C(C)C)c(O)c2c([C@H](CC)OC(C)=O)cc(=O)oc12` (some centres unmarked) [compound 16, Surangin B], in experiment [2], the “mode of inhibition of aromatase” value was “competitive inhibition; also recorded: competitive inhibitors” and the Ki was 1.3 µM. Also, the IC50 in experiment [3] was 9.8 µM.
Take `CCC(C)C(=O)c1c(O)c(C/C=C(\C)CCC=C(C)C)c(O)c2c([C@@H](O)CC)cc(=O)oc12` (some centres unmarked) [compound 17, Surangin C]: in experiment [2], the “mode of inhibition of aromatase” value was “competitive inhibition; also recorded: competitive inhibitors” and the Ki worked out at 2.6 µM. Further, in experiment [3], the 50% inhibitory concentration (IC50) is 8.8 µM.
Turning to `CC[C@H](O)c1cc(=O)oc2c(C(=O)CC(C)C)c(O)c(C/C=C(\C)CCC=C(C)C)c(O)c12` [compound 18, Surangin D], the IC50 in experiment [3] is 9.8 µM.
Consider `CCCC(=O)c1c(O)c(C/C=C(\C)CCC=C(C)C)c(O)c2c([C@@H](O)CC)cc(=O)oc12` [compound 19, Kayeassamin A], for which the IC50 in experiment [1] was 10 µM.
In the case of `CCCC(=O)c1c(O)c(CC=C(C)C)c2oc(=O)cc([C@@H](O)CC)c2c1O` [compound 20, Kayaessamin E], in experiment [3], the IC50 was 14.9 µM.
`CCC(C)C(=O)c1c(O)c(CC=C(C)C)c2oc(=O)cc([C@@H](O)CC)c2c1O` (some centres unmarked) [compound 21, Kayaessamin F]: the IC50 in experiment [3] was 19.7 µM.
For the compound `CC[C@H](O)c1cc(=O)oc2c(CC=C(C)C)c(O)c(C(=O)CC(C)C)c(O)c12` [compound 22, Kayaessamin G], the IC50 in experiment [3] is 27.8 µM.
Turning to `CC(C)=CCc1c(O)c(C(=O)CC(C)C)c(O)c2c(-c3ccccc3)cc(=O)oc12` [compound 24, Mammea A/AA], the Ki in experiment [2] was determined as 13.7 µM. Moreover, the IC50 in experiment [3] is 6.9 µM.
For `CCC(C)C(=O)c1c(O)c(CC=C(C)C)c2oc(=O)cc(-c3ccccc3)c2c1O` (centres unmarked) [compound 25, Mammea A/AB], the Ki in experiment [2] stood at 8.1 µM. For the same compound, the IC50 in experiment [3] is 8.6 µM.
Take `CCCC(=O)c1c(O)c(CC=C(C)C)c2oc(=O)cc(-c3ccccc3)c2c1O` [compound 26, Mammea A/AC]: in experiment [3], the IC50 was 13.7 µM.
With `CC(C)=CCc1c(O)c(C(=O)C(C)C)c(O)c2c(-c3ccccc3)cc(=O)oc12` [compound 27, Mammea A/AD], the IC50 in experiment [3] is 11.3 µM.
Consider `CC(C)CC(=O)c1c2c(c3oc(=O)cc(-c4ccccc4)c3c1O)C=CC(C)(C)O2` [compound 28, Mammea A/AA cyclo D], for which, in experiment [2], the “mode of inhibition of aromatase” value was “competitive inhibition; also recorded: competitive inhibitors” and the Ki turned out to be 1.2 µM. The IC50 in experiment [3] is 7.2 µM.
As to `CCC(C)C(=O)c1c2c(c3oc(=O)cc(-c4ccccc4)c3c1O)C=CC(C)(C)O2` (centres unmarked) [compound 29, Mammea A/AB cyclo D], in experiment [3], the IC50 is 24.1 µM.
On to `CCCC(=O)c1c2c(c3oc(=O)cc(-c4ccccc4)c3c1O)C=CC(C)(C)O2` [compound 30, Mammea A/AC cyclo D], for which the IC50 in experiment [3] was 35 µM.
Take `CCCc1cc(=O)oc2c3c(c(C(=O)C(C)CC)c(O)c12)OC(C)(C)C=C3` (centres unmarked) [compound 31, Mammea B/AB cyclo D]: in experiment [2], the “mode of inhibition of aromatase” value is “competitive inhibitory activity; also recorded: competitive inhibition; also recorded: competitive inhibitors” and the inhibition constant Ki came out at 0.84 µM. Further, the IC50 in experiment [3] is 3.1 µM.
`CCCC(=O)c1c2c(c3oc(=O)cc(CCC)c3c1O)C=CC(C)(C)O2` [compound 32, Mammea B/AC cyclo D]: the IC50 in experiment [3] is 24.6 µM.
Regarding `CCCC(=O)c1c(O)c2c(c3c(C(CC)OC(C)=O)cc(=O)oc13)OC(C)(C)C=C2` (centres unmarked) [compound 33, Mammea E/BC cyclo D], in experiment [2], the “mode of inhibition of aromatase” value is “competitive inhibition; also recorded: competitive inhibitors” and the Ki turned out to be 2.3 µM. For the same compound, in experiment [3], the IC50 is 11.5 µM.
Consider `CCC(OC(C)=O)c1cc(=O)oc2c(C(=O)C(C)C)c(O)c3c(c12)OC(C)(C)C=C3` (centres unmarked) [compound 34, Mammea E/BD cyclo D], for which the IC50 in experiment [1] stood at 21.1 µM.
With `CCCC(=O)c1c(O)c2c(c3c([C@@H](O)CC)cc(=O)oc13)OC(C)(C)C=C2` [compound 35, Deacetylammea E/BC cyclo D], the IC50 in experiment [3] was 16.6 µM.
For the compound `CC[C@H](OC(C)=O)c1cc(=O)oc2c(C(=O)CC(C)C)c(O)c(CC=C(C)C)c(O)c12` [compound 36, Mammea E/BA], the IC50 in experiment [3] is 16.6 µM.
With `CCC(C)C(=O)c1c(O)c(CC=C(C)C)c(O)c2c(C(CC)OC(C)=O)cc(=O)oc12` (centres unmarked) [compound 37, Mammea E/BB], the IC50 in experiment [3] is 18.6 µM.
For `CCCC(=O)c1c2c(c3oc(=O)cc(-c4ccccc4)c3c1O)CC(C(C)(C)O)O2` (centres unmarked) [compound 40, Mammea A/AC cyclo F], the IC50 in experiment [1] amounted to 19.9 µM.
Turning to `CC[C@H](O)c1cc(=O)oc2c3c(c(C(=O)CC(C)C)c(O)c12)OC(C)(C)C=C3` [compound 41, Deacetylammea E/AA cyclo D], the IC50 in experiment [1] was determined as 19.3 µM.
On the same count and under the same terms, next, `CCC(C)C(=O)c1c(O)c2c(c3c([C@@H](O)CC)cc(=O)oc13)OC(C)(C)C=C2` (some centres unmarked) [compound 42, Deacetylammea E/BB cyclo D]: 12.1 µM.
